One assay deals with T1, SMARCA4 (Homo sapiens, UniProt P51532).
T1 construct: SMARCA2-HiBiT knock-in Hela monoclonal cell (CS302366) and SMARCA4-HiBiT knock-in Hela monoclonal cell (CS3023226) were purchased from Promega; host or cells: HeLa SMARCA4-HiBiT knock-in monoclonal cells (heterozygous knock-in)
The experiment in a line: SMARCA4 HiBiT degradation assay in HeLa cells. In kind it is cell-based. Conditions: 18 hours incubation, Nano-Glo HiBiT Lytic detection. The procedure: (§1) Example A. SMARCA2 HiBiT and SMARCA4 HiBiT Degradation Assay
(§2) HiBiT peptide knock-in of SMARCA2 in LgBiT expressing HEK293T cells was performed by CRISPR-mediated tagging system as described Promega. The homozygous HiBiT knock-in on c-terminus SMARCA2 was confirmed by sanger sequence. SMARCA2-HiBiT knock-in Hela monoclonal cell (CS302366) and SMARCA4-HiBiT knock-in Hela monoclonal cell (CS3023226) were purchased from Promega. The heterozygous HiBiT-knock-in was confirmed by sanger sequence in both SMARCA2-HiBiT and SMARCA4-HiBiT monoclonal cells.
(§3) SMARCA2 HiBiT and SMARCA4 HiBiT degradation assay in HeLa cells
(§4) Dispense 10 ul aliquot of prepared Hela-SMARCA2-HiBiT or Hela-SMARCA4-HiBiT cells (1:1 ratio of cells:Trypan Blue (#1450013, Bio-Rad)) onto cell counting slide (#145-0011, Bio-Rad) and obtain cell density and cell viability using cell counter (TC20, Bio-Rad). Remove appropriate volume of resuspended cells from culture flask to accommodate 2500 cells/well @20 μL/well. Transfer Hela-HiBiT cells to 50 mL conical (#430290, Corning). Spin down at 1000 rpm for 5 min using tabletop centrifuge (SPINCHRON 15, Beckman). Discard supernatant and resuspend cell pellet in modified EMEM (#30-2003, ATCC) cell culture media containing 10% FBS (F2422-500ML, Sigma), and 1X Penicillin/Streptomycin (200 g/L) (30-002-CI, Corning) to a cell density of 125,000 cells/mL. Dispense 20 μLof resuspended Hela-HiBit cells per well in 384-well TC treated plate (#12-565-343, Thermo Scientific) using standard cassette (#50950372, Thermo Scientific) on Multidrop Combi (#5840310, Thermo Scientific) inside laminar flow cabinet.
(§5) Compounds were dissolved in DMSO to make 10 mM stock and 3-fold series dilutions were further conducted keeping the highest concentration 10 RM. Dispense test compounds onto plates using digital liquid dispenser (D300E, Tecan). Incubate plates in humidified tissue culture incubator @37° C. for 18 hours. Add 20 μL of prepared Nano-Glo® HiBiT Lytic detection buffer (N3050, Promega) to each well of 384-well plate using small tube cassette (#24073295, Thermo Scientific) on Multidrop Combi, incubate @ RT for 30-60 min. Read plates on microplate reader (Envision 2105, PerkinElmer) using 384 well Ultra-Sensitive luminescence mode. Raw data files and compound information reports are swept into centralized data lake and deconvoluted using automated scripts designed by TetraScience, Inc. Data analysis, curve-fitting and reporting done in Dotmatics Informatics Suite using Screening Ultra module.
(§6) In Table 1, A=DC50<0.1 RM; B=0.1 μM≤DC50<1 μM and C=DC50>1 μM. In Table 4, A=Dmax>75% and B=50%<Dmax<75% and C=Dmax<50%.

The target of a further assay is T2, SMARCA2 (Homo sapiens, UniProt P51531).
T2 construct: SMARCA2-HiBiT knock-in Hela monoclonal cell (CS302366) and SMARCA4-HiBiT knock-in Hela monoclonal cell (CS3023226) were purchased from Promega; host or cells: HeLa SMARCA2-HiBiT knock-in monoclonal cells (heterozygous knock-in)
The experiment in a line: SMARCA2 HiBiT degradation assay in HeLa cells. It counts as cell-based. The note with it: 18 hours incubation, Nano-Glo HiBiT Lytic detection. The procedure:
as §1, §2, §3, §4, §5, §6
(HiBiT is a short tag that completes a luciferase, so light tracks the accessible tagged protein.)

T1 sequence (P51532 whole entry): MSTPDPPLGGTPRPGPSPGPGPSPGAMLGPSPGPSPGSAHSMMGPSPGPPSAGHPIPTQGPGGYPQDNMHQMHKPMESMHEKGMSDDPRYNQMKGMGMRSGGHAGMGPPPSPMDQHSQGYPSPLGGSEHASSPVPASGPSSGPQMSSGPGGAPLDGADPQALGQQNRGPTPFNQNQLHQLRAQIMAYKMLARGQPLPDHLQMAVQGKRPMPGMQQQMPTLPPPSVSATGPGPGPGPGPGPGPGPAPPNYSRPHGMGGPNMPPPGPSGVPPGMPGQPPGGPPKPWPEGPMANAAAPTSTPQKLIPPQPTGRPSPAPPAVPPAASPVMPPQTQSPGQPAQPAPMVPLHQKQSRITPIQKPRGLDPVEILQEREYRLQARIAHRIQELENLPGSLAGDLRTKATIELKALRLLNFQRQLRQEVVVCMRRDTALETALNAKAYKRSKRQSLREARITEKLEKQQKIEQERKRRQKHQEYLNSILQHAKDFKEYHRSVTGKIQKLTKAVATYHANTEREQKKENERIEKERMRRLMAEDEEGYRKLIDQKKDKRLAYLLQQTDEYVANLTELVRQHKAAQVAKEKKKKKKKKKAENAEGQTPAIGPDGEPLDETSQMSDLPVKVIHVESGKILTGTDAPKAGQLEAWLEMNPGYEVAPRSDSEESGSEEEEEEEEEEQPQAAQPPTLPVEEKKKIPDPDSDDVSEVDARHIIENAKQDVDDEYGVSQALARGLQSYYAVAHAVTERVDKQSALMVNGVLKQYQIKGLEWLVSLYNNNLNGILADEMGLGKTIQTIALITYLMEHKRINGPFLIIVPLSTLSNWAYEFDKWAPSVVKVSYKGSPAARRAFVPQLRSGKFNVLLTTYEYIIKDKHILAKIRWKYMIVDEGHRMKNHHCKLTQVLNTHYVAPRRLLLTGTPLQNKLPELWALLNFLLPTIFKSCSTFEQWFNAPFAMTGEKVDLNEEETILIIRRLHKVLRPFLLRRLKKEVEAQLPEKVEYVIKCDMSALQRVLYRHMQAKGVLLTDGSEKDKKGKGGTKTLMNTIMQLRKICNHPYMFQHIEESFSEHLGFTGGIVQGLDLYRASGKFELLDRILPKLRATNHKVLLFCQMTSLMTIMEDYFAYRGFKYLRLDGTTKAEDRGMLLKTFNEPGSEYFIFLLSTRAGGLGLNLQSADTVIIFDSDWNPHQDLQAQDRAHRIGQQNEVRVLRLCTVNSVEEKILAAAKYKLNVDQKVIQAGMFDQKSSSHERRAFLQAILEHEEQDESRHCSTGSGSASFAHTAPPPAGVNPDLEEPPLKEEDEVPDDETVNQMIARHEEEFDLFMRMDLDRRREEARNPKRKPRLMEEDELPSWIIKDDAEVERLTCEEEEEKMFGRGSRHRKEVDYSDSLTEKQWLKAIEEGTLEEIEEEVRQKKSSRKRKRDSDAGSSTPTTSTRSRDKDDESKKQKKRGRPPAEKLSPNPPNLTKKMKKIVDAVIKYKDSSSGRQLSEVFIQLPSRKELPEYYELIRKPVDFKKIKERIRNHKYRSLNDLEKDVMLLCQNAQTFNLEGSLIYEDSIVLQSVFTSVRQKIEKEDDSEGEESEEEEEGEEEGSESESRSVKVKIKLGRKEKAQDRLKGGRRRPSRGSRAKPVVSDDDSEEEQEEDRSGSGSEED
T2 sequence (P51531 whole entry): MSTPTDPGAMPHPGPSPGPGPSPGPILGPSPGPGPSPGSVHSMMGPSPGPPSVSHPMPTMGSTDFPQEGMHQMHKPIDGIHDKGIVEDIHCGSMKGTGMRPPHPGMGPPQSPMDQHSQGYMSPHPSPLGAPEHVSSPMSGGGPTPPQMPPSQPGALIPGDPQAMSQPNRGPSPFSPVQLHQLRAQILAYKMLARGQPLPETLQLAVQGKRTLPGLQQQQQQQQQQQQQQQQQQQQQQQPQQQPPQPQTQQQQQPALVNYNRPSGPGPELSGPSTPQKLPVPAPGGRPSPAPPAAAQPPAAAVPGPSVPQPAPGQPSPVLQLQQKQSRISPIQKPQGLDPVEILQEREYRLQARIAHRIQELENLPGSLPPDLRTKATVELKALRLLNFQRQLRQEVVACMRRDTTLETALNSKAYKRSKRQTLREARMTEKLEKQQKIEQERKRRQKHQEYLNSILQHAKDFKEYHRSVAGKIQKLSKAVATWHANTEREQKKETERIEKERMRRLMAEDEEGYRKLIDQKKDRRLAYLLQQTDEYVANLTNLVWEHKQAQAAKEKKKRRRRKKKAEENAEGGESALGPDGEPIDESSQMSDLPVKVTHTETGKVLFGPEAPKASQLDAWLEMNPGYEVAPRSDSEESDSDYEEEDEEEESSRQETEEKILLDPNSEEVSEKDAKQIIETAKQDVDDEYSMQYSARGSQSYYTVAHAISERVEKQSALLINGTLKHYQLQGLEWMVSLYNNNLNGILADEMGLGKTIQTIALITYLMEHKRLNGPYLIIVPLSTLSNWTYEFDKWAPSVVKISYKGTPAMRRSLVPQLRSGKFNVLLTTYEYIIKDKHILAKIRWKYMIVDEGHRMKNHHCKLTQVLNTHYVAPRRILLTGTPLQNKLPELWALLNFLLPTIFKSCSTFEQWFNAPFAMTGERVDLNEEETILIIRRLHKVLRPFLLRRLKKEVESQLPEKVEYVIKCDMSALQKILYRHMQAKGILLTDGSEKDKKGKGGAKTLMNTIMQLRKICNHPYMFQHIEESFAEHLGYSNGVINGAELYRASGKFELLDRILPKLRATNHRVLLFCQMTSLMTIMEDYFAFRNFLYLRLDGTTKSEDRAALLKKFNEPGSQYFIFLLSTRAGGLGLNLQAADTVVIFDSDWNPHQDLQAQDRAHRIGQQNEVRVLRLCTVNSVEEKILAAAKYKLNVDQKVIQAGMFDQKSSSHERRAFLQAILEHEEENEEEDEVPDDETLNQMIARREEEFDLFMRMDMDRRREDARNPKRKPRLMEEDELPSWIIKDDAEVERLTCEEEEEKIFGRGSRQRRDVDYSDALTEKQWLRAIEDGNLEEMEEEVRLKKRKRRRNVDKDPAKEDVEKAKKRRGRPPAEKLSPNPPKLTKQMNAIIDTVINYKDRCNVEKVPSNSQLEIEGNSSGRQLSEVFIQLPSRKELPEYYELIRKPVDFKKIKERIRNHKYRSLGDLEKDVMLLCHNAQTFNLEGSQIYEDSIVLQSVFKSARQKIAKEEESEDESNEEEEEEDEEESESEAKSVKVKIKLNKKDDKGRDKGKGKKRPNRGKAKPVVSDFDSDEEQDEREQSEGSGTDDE

What is called DC50 is the concentration at which degradation of the target reaches its halfway point. High values mean a less potent degrader, low ones a more potent degrader. By Dmax is commonly meant the largest share of the target that was removed. Low values mean a partial loss of target, high ones a fuller loss of target. On SMARCA4, `CC[C@]12CNc3nnc(-c4ccccc4O)cc3N1C[C@H](Oc1ccc(CN3CCN(c4ccc(NC5CCC(=O)NC5=O)cc4F)CC3)cn1)C2` (stereo partly drawn) [Example 11, 3-((4-(4-((6-(((6aS,8R)-6a-ethyl-2-(2-hydroxyphenyl)-5,6,6a,7,8,9-hexahydro-pyrrolo[1′,2′:4,5]pyrazino[2,3-c]pyridazin-8-yl)oxy)pyridin-3-yl)methyl)piperazin-1-yl)-3-fluorophenyl)amino)piperidine-2,6-dione] came in with a DC50 of less than 100 nM and a Dmax greater than 75%. On SMARCA2, this compound had a DC50 of less than 100 nM and a Dmax greater than 75%.

Turning to `O=C1CCC(c2ccc(C3CCN(Cc4ccc(O[C@H]5CN6c7cc(-c8ccccc8O)nnc7NC[C@@]6(C(F)F)C5)nc4)CC3)cc2)C(=O)N1` (stereo partly drawn) [Example 15, 3-(4-(1-((6-(((6aR,8R)-6a-(difluoromethyl)-2-(2-hydroxyphenyl)-5,6,6a,7,8,9-hexahydropyrrolo[1′,2′:4,5]pyrazino[2,3-c]pyridazin-8-yl)oxy)pyridin-3-yl)methyl)piperidin-4-yl)phenyl)piperidine-2,6-dione], on SMARCA4, the DC50 was less than 100 nM and the Dmax is greater than 75%. Further, at SMARCA2, the DC50 was less than 100 nM and the Dmax fell in the range of 50 to 75%.

On SMARCA4, `CC[C@]12CNc3nnc(-c4ccccc4O)cc3N1C[C@H](Oc1ccc(CN3CCN(c4ccc(C(=O)NC5CCC(=O)NC5=O)c(F)c4)CC3)cn1)C2` (stereo partly drawn) [Example 13, N-(2,6-dioxopiperidin-3-yl)-4-(4-((6-(((6aS,8R)-6a-ethyl-2-(2-hydroxyphenyl)-5,6,6a,7,8,9-hexahydropyrrolo[1′,2′:4,5]pyrazino[2,3-c]pyridazin-8-yl)oxy)pyridin-3-yl)methyl)piperazin-1-yl)-2-fluorobenzamide] registered a DC50 greater than 1000 nM and a Dmax of less than 50%. Moreover, at SMARCA2, the DC50 is 100 to 1000 nM and the Dmax was less than 50%.

On SMARCA4, `C[C@@H]1CN(CC2CCN(c3ccc4cn(C5CCC(=O)NC5=O)nc4c3)CC2)C[C@H](C)N1C(=O)N1CCN2c3cc(-c4ccccc4O)nnc3NC[C@H]2C1` (stereo partly drawn) [Example 4, 3-(6-(4-(((3S,5R)-4-((S)-2-(2-hydroxyphenyl)-6,6a,7,8,9,10-hexahydro-5H-pyrazino[1′,2′:4,5]pyrazino[2,3-c]pyridazine-8-carbonyl)-3,5-dimethylpiperazin-1-yl)methyl)piperidin-1-yl)-2H-indazol-2-yl)piperidine-2,6-dione] returned a DC50 of less than 100 nM and a Dmax of 50 to 75%. Further, on SMARCA2, the DC50 was less than 100 nM and the Dmax was 50 to 75%.

As to `CC[C@]12CNc3nnc(-c4ccccc4O)cc3N1C[C@H](Oc1ccc(CN3CCN(c4ccc(C(=O)NC5CCC(=O)NC5=O)cc4)CC3)cn1)C2` (stereo partly drawn) [Example 12, N-(2,6-dioxopiperidin-3-yl)-4-(4-((6-(((6aS,8R)-6a-ethyl-2-(2-hydroxyphenyl)-5,6,6a,7,8,9-hexahydropyrrolo[1′,2′:4,5]pyrazino[2,3-c]pyridazin-8-yl)oxy)pyridin-3-yl)methyl)piperazin-1-yl)benzamide], at SMARCA4, the DC50 is 100 to 1000 nM and the Dmax is less than 50%. On SMARCA2, the DC50 is less than 100 nM and the Dmax fell in the range of 50 to 75%.

Take `O=C1CCC(n2ncc3ccc(N4CCC(CN5C[C@@H]6[C@H](C5)[C@H]6CN5CCN6c7cc(-c8ccccc8O)nnc7NC[C@H]6C5)CC4)cc32)C(=O)N1` (stereo partly drawn) [Example 6, 3-(6-(4-(((1R,5S,6r)-6-(((S)-2-(2-hydroxyphenyl)-5,6,6a,7,9,10-hexahydro-8H-pyrazino[1′,2′:4,5]pyrazino[2,3-c]pyridazin-8-yl)methyl)-3-azabicyclo[3.1.0]hexan-3-yl)methyl)piperidin-1-yl)-1H-indazol-1-yl)piperidine-2,6-dione]: the values for the DC50 at SMARCA4 and on SMARCA2 were greater than 1000 nM and 100 to 1000 nM, respectively. Further, the greatest degradation seen (Dmax) at SMARCA4 and on SMARCA2 was less than 50% each time.

As to `C[C@@H]1CN(CC2CCN(c3ccc4cnn(C5CCC(=O)NC5=O)c4c3)CC2)C[C@H](C)N1C(=O)N1CCN2c3cc(-c4ccccc4O)nnc3NC[C@H]2C1` (stereo partly drawn) [Example 5, 3-(6-(4-(((3R,5S)-4-((S)-2-(2-hydroxyphenyl)-6,6a,7,8,9,10-hexahydro-5H-pyrazino[1′,2′:4,5]pyrazino[2,3-c]pyridazine-8-carbonyl)-3,5-dimethylpiperazin-1-yl)methyl)piperidin-1-yl)-1H-indazol-1-yl)piperidine-2,6-dione], at SMARCA4, the DC50 is greater than 1000 nM and the Dmax was less than 50%. On SMARCA2, this compound showed a DC50 of 100 to 1000 nM and a Dmax of less than 50%.

`C[C@@H]1CN(CC2CCN(c3ccc(C(=O)NC4CCC(=O)NC4=O)c(F)c3)CC2)C[C@H](C)N1C(=O)N1CCN2c3cc(-c4ccccc4O)nnc3NC[C@H]2C1` (stereo partly drawn) [Example 1, N-(2,6-dioxopiperidin-3-yl)-2-fluoro-4-(4-(((3R,5S)-4-((S)-2-(2-hydroxyphenyl)-6,6a,7,8,9,10-hexahydro-5H-pyrazino[1′,2′:4,5]pyrazino[2,3-c]pyridazine-8-carbonyl)-3,5-dimethylpiperazin-1-yl)methyl)piperidin-1-yl)benzamide]: the DC50 on SMARCA4 was greater than 1000 nM; on SMARCA2 it was less than 100 nM.

As to `CC[C@]12CNc3nnc(-c4ccccc4O)cc3N1C[C@H](Oc1ccc(CN3CCN(c4ccc(N5CCC(=O)NC5=O)cc4)CC3)cn1)C2` [Example 9, 1-(4-(4-((6-(((6aS,8R)-6a-ethyl-2-(2-hydroxyphenyl)-5,6,6a,7,8,9-hexahydro-pyrrolo[1′,2′:4,5]pyrazino[2,3-c]pyridazin-8-yl)oxy)pyridin-3-yl)methyl)piperazin-1-yl)phenyl)dihydropyrimidine-2,4(1H,3H)-dione], at SMARCA4, the DC50 was less than 100 nM and the Dmax lay in the range of 50 to 75%. At SMARCA2, this compound displayed a DC50 of 100 to 1000 nM and a Dmax of less than 50%.

For `CC[C@]12CNc3nnc(-c4ccccc4O)cc3N1C[C@H](Oc1ccc(CN3CCN(c4ccc(NC5CCC(=O)NC5=O)cc4)CC3)cn1)C2` (stereo partly drawn) [Example 10, 3-((4-(4-((6-(((6aS,8R)-6a-ethyl-2-(2-hydroxyphenyl)-5,6,6a,7,8,9-hexahydro-pyrrolo[1′,2′:4,5]pyrazino[2,3-c]pyridazin-8-yl)oxy)pyridin-3-yl)methyl)piperazin-1-yl)phenyl)amino)piperidine-2,6-dione], on SMARCA4, the DC50 is less than 100 nM and the Dmax is greater than 75%. In addition, at SMARCA2, the DC50 is less than 100 nM and the maximal degradation (Dmax) was greater than 75%.

At SMARCA4, `CC[C@@]12CNc3nnc(-c4ccccc4O)cc3N1C[C@H](Oc1ccc(CN3CCC(c4ccc(C5CCC(=O)NC5=O)cc4)CC3)cn1)C2` (stereo partly drawn) [Example 16, 3-(4-(1-((6-(((6aR,8R)-6a-ethyl-2-(2-hydroxyphenyl)-5,6,6a,7,8,9-hexahydro-pyrrolo[1′,2′:4,5]pyrazino[2,3-c]pyridazin-8-yl)oxy)pyridin-3-yl)methyl)piperidin-4-yl)phenyl)piperidine-2,6-dione] came in with a DC50 of less than 100 nM and a Dmax greater than 75%. At SMARCA2, the DC50 is less than 100 nM and the Dmax was greater than 75%.

Consider `C[C@@H]1CN(CC2CCN(c3ccc4c(=O)n(C5CCC(=O)NC5=O)ncc4c3)CC2)C[C@H](C)N1C(=O)N1CCN2c3cc(-c4ccccc4O)nnc3NC[C@H]2C1` (stereo partly drawn) [Example 3, 3-(6-(4-(((3R,5S)-4-((S)-2-(2-hydroxyphenyl)-6,6a,7,8,9,10-hexahydro-5H-pyrazino[1′,2′:4,5]pyrazino[2,3-c]pyridazine-8-carbonyl)-3,5-dimethylpiperazin-1-yl)methyl)piperidin-1-yl)-1-oxophthalazin-2(1H)-yl)piperidine-2,6-dione], for which, at SMARCA4, the DC50 is 100 to 1000 nM and the Dmax was less than 50%. Moreover, at SMARCA2, the DC50 was less than 100 nM and the Dmax was 50 to 75%.
